In ChEMBL document CHEMBL5338824 (J Med Chem, 2023):
Calls of active or inactive are those of the source. No cut-off for these calls is given here.

What was measured:
MV4-11 [1] = assay: Antiproliferative activity against human MV4-11 cells assessed as cell growth inhibition incubated for 4 days by WST-8 assay; type: functional, cell-based; details: MV4-11, 96 h
[2] = biological target: T1, Protein cereblon/Bromodomain-containing protein 3 (Homo sapiens, UniProt Q15059+Q96SW2); details: MOLM-13, dose 0.1-1000 nM, time 4.0 hrs
Target sequence in this assay (Q15059 2-726 limits assumed): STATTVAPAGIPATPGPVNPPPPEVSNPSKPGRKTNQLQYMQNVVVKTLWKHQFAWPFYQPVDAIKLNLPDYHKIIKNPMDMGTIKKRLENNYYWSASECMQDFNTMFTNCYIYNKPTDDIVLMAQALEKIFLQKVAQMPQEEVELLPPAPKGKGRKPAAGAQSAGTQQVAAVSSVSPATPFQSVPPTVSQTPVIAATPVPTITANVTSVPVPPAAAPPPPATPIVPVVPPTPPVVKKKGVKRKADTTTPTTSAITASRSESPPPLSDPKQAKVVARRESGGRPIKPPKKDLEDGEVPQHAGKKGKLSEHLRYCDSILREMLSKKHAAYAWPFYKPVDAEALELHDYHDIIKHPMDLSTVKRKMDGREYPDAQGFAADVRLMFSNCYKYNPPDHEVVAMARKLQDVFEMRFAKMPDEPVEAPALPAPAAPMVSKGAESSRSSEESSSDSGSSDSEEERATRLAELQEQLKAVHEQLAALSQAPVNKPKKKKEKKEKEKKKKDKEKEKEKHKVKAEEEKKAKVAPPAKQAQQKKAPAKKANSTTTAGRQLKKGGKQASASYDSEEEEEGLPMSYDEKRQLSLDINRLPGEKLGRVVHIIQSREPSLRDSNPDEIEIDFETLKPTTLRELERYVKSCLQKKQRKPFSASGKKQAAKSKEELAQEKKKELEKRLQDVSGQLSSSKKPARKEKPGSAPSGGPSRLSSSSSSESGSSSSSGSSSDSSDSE
Target sequence in this assay (Q96SW2 whole entry partner): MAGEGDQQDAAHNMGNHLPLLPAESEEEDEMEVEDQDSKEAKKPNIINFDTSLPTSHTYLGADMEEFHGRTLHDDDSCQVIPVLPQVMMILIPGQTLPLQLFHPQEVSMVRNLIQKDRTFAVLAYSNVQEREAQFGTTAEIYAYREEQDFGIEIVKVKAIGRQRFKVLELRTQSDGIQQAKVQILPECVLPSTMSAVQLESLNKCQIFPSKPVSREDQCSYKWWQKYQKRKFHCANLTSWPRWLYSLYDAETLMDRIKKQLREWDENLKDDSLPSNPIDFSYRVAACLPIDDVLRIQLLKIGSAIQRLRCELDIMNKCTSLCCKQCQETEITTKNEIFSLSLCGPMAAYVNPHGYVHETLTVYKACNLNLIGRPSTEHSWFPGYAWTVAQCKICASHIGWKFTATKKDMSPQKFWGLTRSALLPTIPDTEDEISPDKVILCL

[3] = biological target: T1, Protein cereblon/Bromodomain-containing protein 3; details: MCF7, dose 0.1-1000 nM, time 4.0 hrs
Target sequence in this assay (Q15059 2-726 limits assumed): as the sequence (Q15059 2-726 limits assumed) above
Target sequence in this assay (Q96SW2 whole entry partner): as the sequence (Q96SW2 whole entry partner) above

[4] = biological target: T1, Protein cereblon/Bromodomain-containing protein 3; details: RS4-11, dose 0.1-1000 nM, time 4.0 hrs
Target sequence in this assay (Q15059 2-726 limits assumed): as the sequence (Q15059 2-726 limits assumed) above
Target sequence in this assay (Q96SW2 whole entry partner): as the sequence (Q96SW2 whole entry partner) above

[5] = biological target: T2, Protein cereblon/Bromodomain-containing protein 2 (Homo sapiens, UniProt P25440+Q96SW2); details: MV4-11, dose 0.1-1000 nM, time 4.0 hrs
Target sequence in this assay (P25440 whole entry, looked up): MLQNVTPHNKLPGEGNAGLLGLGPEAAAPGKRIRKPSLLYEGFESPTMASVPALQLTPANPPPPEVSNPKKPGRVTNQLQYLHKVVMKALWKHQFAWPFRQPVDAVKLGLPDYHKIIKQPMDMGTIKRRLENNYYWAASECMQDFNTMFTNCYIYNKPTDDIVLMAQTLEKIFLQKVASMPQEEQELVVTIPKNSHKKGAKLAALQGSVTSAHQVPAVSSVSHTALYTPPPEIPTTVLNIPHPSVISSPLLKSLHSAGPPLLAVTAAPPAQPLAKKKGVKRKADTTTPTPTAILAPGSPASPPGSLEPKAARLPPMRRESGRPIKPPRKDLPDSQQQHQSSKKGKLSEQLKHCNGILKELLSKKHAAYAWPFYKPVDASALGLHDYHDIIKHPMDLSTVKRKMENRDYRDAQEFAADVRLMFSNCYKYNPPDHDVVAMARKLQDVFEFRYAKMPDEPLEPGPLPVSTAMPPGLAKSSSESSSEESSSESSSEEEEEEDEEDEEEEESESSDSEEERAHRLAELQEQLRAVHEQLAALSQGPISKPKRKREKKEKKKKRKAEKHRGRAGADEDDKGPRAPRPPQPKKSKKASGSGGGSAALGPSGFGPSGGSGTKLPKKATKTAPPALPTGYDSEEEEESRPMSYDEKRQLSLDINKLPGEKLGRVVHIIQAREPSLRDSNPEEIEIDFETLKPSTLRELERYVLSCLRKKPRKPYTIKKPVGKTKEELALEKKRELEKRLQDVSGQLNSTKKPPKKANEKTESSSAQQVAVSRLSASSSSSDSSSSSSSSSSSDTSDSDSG
Target sequence in this assay (Q96SW2 whole entry, looked up): as the sequence (Q96SW2 whole entry partner) above

[6] = biological target: T1, Protein cereblon/Bromodomain-containing protein 3; details: MDA-MB-453, dose 0.1-1000 nM, time 4.0 hrs
Target sequence in this assay (Q15059 2-726 limits assumed): as the sequence (Q15059 2-726 limits assumed) above
Target sequence in this assay (Q96SW2 whole entry partner): as the sequence (Q96SW2 whole entry partner) above

[7] = biological target: T2, Protein cereblon/Bromodomain-containing protein 2; details: RS4-11, dose 0.1-1000 nM, time 4.0 hrs
Target sequence in this assay (P25440 whole entry, looked up): as the sequence (P25440 whole entry, looked up) above
Target sequence in this assay (Q96SW2 whole entry, looked up): as the sequence (Q96SW2 whole entry partner) above

[8] = biological target: T1, Protein cereblon/Bromodomain-containing protein 3; details: MV4-11, dose 0.1-1000 nM, time 4.0 hrs
Target sequence in this assay (Q15059 2-726 limits assumed): as the sequence (Q15059 2-726 limits assumed) above
Target sequence in this assay (Q96SW2 whole entry partner): as the sequence (Q96SW2 whole entry partner) above

[9] = biological target: T2, Protein cereblon/Bromodomain-containing protein 2; details: MDA-MB-231, dose 0.1-1000 nM, time 4.0 hrs
Target sequence in this assay (P25440 whole entry, looked up): as the sequence (P25440 whole entry, looked up) above
Target sequence in this assay (Q96SW2 whole entry, looked up): as the sequence (Q96SW2 whole entry partner) above

[10] = biological target: T1, Protein cereblon/Bromodomain-containing protein 3; details: T47D, dose 0.1-1000 nM, time 4.0 hrs
Target sequence in this assay (Q15059 2-726 limits assumed): as the sequence (Q15059 2-726 limits assumed) above
Target sequence in this assay (Q96SW2 whole entry partner): as the sequence (Q96SW2 whole entry partner) above

MDA-MB-453 = assay: Antiproliferative activity against human MDA-MB-453 cells assessed as cell growth inhibition incubated for 4 days by WST-8 assay; type: functional, cell-based; details: MDA-MB-453, 96 h
[11] = biological target: T1, Protein cereblon/Bromodomain-containing protein 3; details: HL-60, dose 0.1-1000 nM, time 4.0 hrs
MCF7 = assay: Antiproliferative activity against human MCF7 cells assessed as cell growth inhibition incubated for 4 days by WST-8 assay; type: functional, cell-based; details: MCF7, 96 h
[12] = biological target: T2, Protein cereblon/Bromodomain-containing protein 2; details: MDA-MB-453, dose 0.1-1000 nM, time 4.0 hrs
Target sequence in this assay (P25440 whole entry, looked up): as the sequence (P25440 whole entry, looked up) above
Target sequence in this assay (Q96SW2 whole entry, looked up): as the sequence (Q96SW2 whole entry partner) above

[13] = biological target: T2, Protein cereblon/Bromodomain-containing protein 2; details: MCF7, dose 0.1-1000 nM, time 4.0 hrs
Target sequence in this assay (P25440 whole entry, looked up): as the sequence (P25440 whole entry, looked up) above
Target sequence in this assay (Q96SW2 whole entry, looked up): as the sequence (Q96SW2 whole entry partner) above

[14] = biological target: T2, Protein cereblon/Bromodomain-containing protein 2; details: MOLM-13, dose 0.1-1000 nM, time 4.0 hrs
Target sequence in this assay (P25440 whole entry, looked up): as the sequence (P25440 whole entry, looked up) above
Target sequence in this assay (Q96SW2 whole entry, looked up): as the sequence (Q96SW2 whole entry partner) above

RS4-11 = assay: Antiproliferative activity against human RS4-11 cells assessed as cell growth inhibition incubated for 4 days by WST-8 assay; type: functional, cell-based; details: RS4-11, 96 h
HL-60 = assay: Antiproliferative activity against human HL-60 cells assessed as cell growth inhibition incubated for 4 days by WST-8 assay; type: functional, cell-based; details: HL-60, 96 h
T47D = assay: Antiproliferative activity against human T47D cells assessed as cell growth inhibition incubated for 4 days by WST-8 assay; type: functional, cell-based; details: 96 h
MDA-MB-231 [15] = assay: Antiproliferative activity against human MDA-MB-231 cells assessed as cell growth inhibition incubated for 4 days by WST-8 assay; type: functional, cell-based; details: MDA-MB-231, 96 h
[16] = biological target: T2, Protein cereblon/Bromodomain-containing protein 2; details: T47D, dose 0.1-1000 nM, time 4.0 hrs
[17] = biological target: T1, Protein cereblon/Bromodomain-containing protein 3; details: MDA-MB-231, dose 0.1-1000 nM, time 4.0 hrs
[18] = biological target: T2, Protein cereblon/Bromodomain-containing protein 2; details: HL-60, dose 0.1-1000 nM, time 4.0 hrs
MOLM-13 = assay: Antiproliferative activity against human MOLM-13 cells assessed as cell growth inhibition incubated for 4 days by WST-8 assay; type: functional, cell-based; details: MOLM-13, 96 h
[19] = Toxicity in SCID mouse xenografted with human MV4-11 cells assessed as body weight loss at 20 mg/kg,ip qd administrated 5 days per week for 4 weeks; type: organism-based; details: in vivo, 672 h, time 28 day
MV4-11 [20] = assay: Antitumor activity against human MV4-11 cells xenografted in SCID mouse assessed as inhibition of tumor growth at 20 mg/kg,ip qd administrated and measured after 1 week; type: functional; details: MV4-11, 168 h, time 1 weeks
[21] = Toxicity in SCID mouse xenografted with human MDA-MB-231 cells assessed as body weight loss at 20 mg/kg,ip qd administrated 5 days per week for 4 weeks; type: organism-based; details: in vivo, 672 h, time 28 day
MV4-11 [22] = assay: Antitumor activity against human MV4-11 cells xenografted in SCID mouse assessed as decrease in tumor growth at 20 mg/kg,ip qd administrated and measured after 48 hrs; type: functional, organism-based
[23] = Toxicity in SCID mouse xenografted with human MV4-11 cells assessed as toxic signs at 20 mg/kg,ip qd administrated 5 days per week for 4 weeks; type: organism-based; details: in vivo, 672 h, time 28 day
[24] = Toxicity in SCID mouse xenografted with human MDA-MB-231 cells assessed as toxic signs at 20 mg/kg,ip qd administrated 5 days per week for 4 weeks; type: organism-based; details: in vivo, 672 h, time 28 day
MV4-11 [25] = assay: Antitumor activity against human MV4-11 cells xenografted in SCID mouse assessed as inhibition of tumor growth at 20 mg/kg,ip qd administrated 5 days per week for 4 weeks; type: functional; details: MV4-11, 672 h, time 28 day
[26] = biological target: T1, Protein cereblon/Bromodomain-containing protein 3; assay: In vivo protac activity at CRBN/BRD3 in human MV4-11 cells xenografted in SCID mouse assessed as degradation of BRD3 protein at 20 mg/kg,ip administrated and measured at 3 to 48 hrs by Western blotting analysis; type: functional, organism-based; details: time lower 3.0 hrs, time upper […]
MDA-MB-231 [27] = assay: Antitumor activity against human MDA-MB-231 cells xenografted in SCID mouse assessed as inhibition of tumor growth at 20 mg/kg,ip qd administrated 5 days per week for 4 weeks; type: functional; details: MDA-MB-231, 672 h, time 28 day
[28] = biological target: T2, Protein cereblon/Bromodomain-containing protein 2; assay: In vivo protac activity at CRBN/BRD2 in human MV4-11 cells xenografted in SCID mouse assessed as degradation of BRD2 protein at 20 mg/kg,ip administrated and measured at 3 to 48 hrs by Western blotting analysis; type: functional, organism-based; details: time lower 3.0 hrs, time upper […]
[29] = biological target: T3, Protein cereblon/Bromodomain-containing protein 4 (Homo sapiens, UniProt O60885+Q96SW2); assay: PROTAC activity at CRBN/BRD4 in human MV4-11 cells assessed as degradation of BRD4 protein level incubated for 4 hrs by Western blotting assay; type: cell-based
[30] = biological target: T3, Protein cereblon/Bromodomain-containing protein 4; details: MV4-11, dose 0.1-1000 nM, time 4.0 hrs
[31] = biological target: T2, Protein cereblon/Bromodomain-containing protein 2; assay: PROTAC activity at CRBN/BRD2 in human MV4-11 cells assessed as degradation of BRD2 protein level incubated for 4 hrs by Western blotting assay; type: cell-based
Target sequence in this assay (P25440 whole entry): as the sequence (P25440 whole entry, looked up) above
Target sequence in this assay (Q96SW2 whole entry): as the sequence (Q96SW2 whole entry partner) above

[32] = biological target: T1, Protein cereblon/Bromodomain-containing protein 3; assay: PROTAC activity at CRBN/BRD3 in human MV4-11 cells assessed as degradation of BRD3 protein level incubated for 4 hrs by Western blotting assay; type: cell-based
Target sequence in this assay (Q15059 whole entry): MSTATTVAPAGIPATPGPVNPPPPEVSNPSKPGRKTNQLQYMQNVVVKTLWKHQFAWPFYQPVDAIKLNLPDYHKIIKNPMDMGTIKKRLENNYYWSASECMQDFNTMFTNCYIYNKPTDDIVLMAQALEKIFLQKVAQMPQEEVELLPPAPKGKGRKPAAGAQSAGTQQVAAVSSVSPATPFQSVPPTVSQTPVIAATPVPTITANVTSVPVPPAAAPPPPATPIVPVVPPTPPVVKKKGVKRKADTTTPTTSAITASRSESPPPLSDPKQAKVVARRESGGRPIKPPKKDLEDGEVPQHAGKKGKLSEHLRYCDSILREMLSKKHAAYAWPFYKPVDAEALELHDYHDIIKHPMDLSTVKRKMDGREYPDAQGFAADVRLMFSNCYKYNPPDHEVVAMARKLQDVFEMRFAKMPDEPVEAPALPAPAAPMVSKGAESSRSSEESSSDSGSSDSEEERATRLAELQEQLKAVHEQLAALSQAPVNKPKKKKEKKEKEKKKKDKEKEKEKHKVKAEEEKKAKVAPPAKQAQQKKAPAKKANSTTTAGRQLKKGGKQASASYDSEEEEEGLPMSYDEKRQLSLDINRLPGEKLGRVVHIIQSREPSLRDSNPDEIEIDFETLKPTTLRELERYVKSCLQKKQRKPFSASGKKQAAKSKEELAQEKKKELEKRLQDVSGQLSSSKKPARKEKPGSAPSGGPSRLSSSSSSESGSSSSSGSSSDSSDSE
Target sequence in this assay (Q96SW2 whole entry): as the sequence (Q96SW2 whole entry partner) above

T3 sequence (Q96SW2 whole entry, looked up, other chains not shown): as the sequence (Q96SW2 whole entry partner) above

SMILES | IC50 (MV4-11 [1]) [nM] | Emax [2] [%] | Emax [3] [%] | Emax [4] [%] | Emax [5] [%] | Emax [6] [%] | Emax [7] [%] | Emax [8] [%] | Emax [9] [%] | Emax [10] [%] | IC50 (MDA-MB-453) [nM] | Emax [11] [%] | IC50 (MCF7) [nM] | Emax [12] [%] | Emax [13] [%] | IC50 (RS4-11) [nM] | IC50 (HL-60) [nM] | IC50 (T47D) [nM] | IC50 (MDA-MB-231 [15]) [nM] | IC50 (MOLM-13) [nM] | further results
Cc1nnc2n1-c1sc(C#Cc3cnn(C4CN(c5cccc6c5C(=O)N(C5CCC(=O)NC5=O)C6=O)C4)c3)c(Cc3ccccc3)c1COC2 (stereo unspecified) | 17 | 13 | 34 | 6 | 0 | 5 | < 10 | 0 | 0 | 22 | 59.9 | 18 | 37.8 | 18 | 0 | 6.4 | 4.9 | 3.3 | 15.9 | 25 | Emax [14]: 27%; Emax [16]: 0%; Emax [17]: 19%; Emax [18]: 10%
Cc1nnc2n1-c1sc(C#Cc3cnn(C4(CCN5CCN(C)CC5)CN(c5cccc6c5C(=O)N(C5CCC(=O)NC5=O)C6=O)C4)c3)c(Cc3ccccc3)c1COC2 (stereo unspecified) | 11 | 9 | 0 | 15 | 0 | 14 | 15 | 0 | 0 | 25 | 80.9 | 10 | 38.4 | 0 | 11 | 4.6 | 5.1 | 3.8 | 17.6 | 69 | Activity [19]: Non-Toxic; Emax [14]: 0%; inhibition in vivo at 20 mg/kg (MV4-11 [20]): 56%; Activity [21]: Non-Toxic; Activity (MV4-11 [22]): Active; Activity [23]: Non-Toxic; Emax [16]: 6%; Activity [24]: Non-Toxic; Emax [17]: 0%; Emax [18]: 18%
Cc1nnc2n1-c1sc(C#Cc3cnn(C4CCN(c5cccc6c5C(=O)N(C5CCC(=O)NC5=O)C6=O)CC4)c3)c(Cc3ccccc3)c1COC2 (stereo unspecified) | – | – | – | – | 68 | – | – | 56 | – | – | – | – | – | – | – | – | – | – | – | – | –
Cc1nnc2n1-c1sc(C#Cc3cnn(C)c3)c(Cc3ccccc3)c1COC2 | 149 | – | – | – | 0 | – | – | 0 | – | – | 689 | – | 804 | – | – | 186 | 113 | 623 | 151 | 212 | inhibition in vivo at 20 mg/kg (MV4-11 [25]): 63%; Activity [26]: inactive; inhibition in vivo at 20 mg/kg (MDA-MB-231 [27]): 49%; Activity [28]: inactive
Cc1nnc2n1-c1sc(C#Cc3cnn(C4CN(c5cccc6c5C(=O)N(C5CCC(=O)N(C)C5=O)C6=O)C4)c3)c(Cc3ccccc3)c1COC2 (stereo unspecified) | – | – | – | – | 5 | – | – | 12 | – | – | – | – | – | – | – | – | – | – | – | – | DC50 [29]: > 1000 nM; Emax [30]: 2%; DC50 [31]: > 1000 nM; DC50 [32]: > 1000 nM
